Laboratory results as given in patent US20070148184A1, “Survivin-derived peptides and use thereof” (priority 2003, published 2007).
“Also recorded” adds a separate entry of the source. Where two headings read alike, the source gives them in different places. Values belong to the molecule of their own block, whether it stands above or below them. Residues, ends and D or L forms follow the SMILES beside them. No end group written: not given here.

Key:
HLA-A2 = target: T1, HLA-A2 (Homo sapiens, UniProt P04439, D140Y/D185E/D98H/E176V/E277Q/G131W/G231S/I119V/I121R/I166T/I218V/L300P/L318F/N151K/N90K/P208A/P217A/Q86G/Q94H/R138H/R169H/T345S); assay: Assembly assay for peptide binding to class I MHC, HLA-A2
T1 construct: stabilization of the class I molecules after loading of peptide to the peptide transporter deficient cell line T2; endogenous in cells; host or cells: T2 (TAP-deficient human hybrid cell line), metabolically labelled lysate
Experimental: This assembly assay is carried out as described previously (12,13), and it is based on stabilisation of the HLA molecule after loading of peptide to the peptide transporter deficient cell line T2. Subsequently, correctly folded stable HLA heavy chains are immunoprecipitated using conformation dependent antibodies and the peptide binding is quantitated.
Assembly assays for binding of the synthetic peptides to class I MHC molecules metabolically labeled with [35S]-methionine were carried out as described (12,13). The assembly assay is based on stabilization of the class I molecules after loading of peptide to the peptide transporter deficient cell line T2. Subsequently, correctly folded stable MHC heavy chains are immunoprecipitated using conformation-dependent antibodies. After IEF electrophoresis, gels were exposed to phosphoImager screens, and peptide binding was quantified using the Imagequant PhosphorImager program (Molecular Dynamics, Sunnyvale, Calif.).
The binding affinity of synthetic peptides (Invitrogen, Carlsbad, Calif., USA) to HLA-A1, -A2, A3, or -A11 molecules metabolically labeled with [^35S]-methionine was measured in the assembly assay, as described previously (12). The assay is based on peptide-mediated stabilization of empty HLA molecules released upon cell lysis, from the TAP-deficient cell lines. […] MHC heavy chain bands were quantified using the ImageGauge Phosphorimager program (FUJI photo film Co., Carrollton, Tex., USA). The intensity of the band is proportional to the amount of peptide-bound class I MHC complex recovered during the assay. Subsequently, the extent of stabilization of the HLA-molecule is directly related to the binding affinity of the added peptide. The peptide concentration used to analyze the recovery of the HLA-molecules was 40, 4, 0.4, 0.04 μM for HLA-A1 and HLA-A11, and 100, 10, 1, 0.1, 0.01 μM for HLA-A2 and HLA-A3. The C50 value was subsequently calculated for each peptide as the peptide concentration sufficient for half maximal stabilization.

[1] = tested on: peptide epitope-specific interferon-γ releasing effector cells; assay: IFN-γ ELISPOT, Example 4 (PBL or TIL from cancer patients); assay type: cell-based, human
Experimental: To extend the sensitivity of the ELISPOT assay, PBL were stimulated once in vitro prior to analysis. At day 0, PBL or crushed lymph nodes were thawed and plated as 2×10^6 cells in 2 ml/well in 24-well plates (Nunc, Roskilde, Denmark) in x-vivo medium (Bio Whittaker, Walkersville, Md.), […] heat-inactivated human serum, and 2 mM of L-glutamine in the presence of 10 μM of peptide. Two days later 20 IU/ml recombinant interleukin-2 (IL-2) (Chiron, Ratingen, Germany) was added to the cultures. The cultured cells were tested for reactivity in the ELISPOT on day 10.
The ELISPOT assay was used to quantify peptide epitope-specific interferon-γ releasing effector cells as previously described (16). Briefly, nitrocellulose bottomed 96-well plates (MultiScreen MAIP N45, Millipore, Hedehusene, Denmark) were coated with anti-IFN-γ antibody (1-D1K, Mabtech, Nacka, Sweden). The wells were washed, blocked by X-vivo medium, and the cells were added in duplicates at different cell concentrations. The peptides were then added to each well and the plates were incubated overnight. The following day, media was discarded and the wells were washed prior to addition of biotinylated secondary antibody (7-B6-1-Biotin, Mabtech). The plates were incubated for 2 hours, washed, and avidin-alkaline phosphatase conjugate (Calbiochem, Life Technologies, Inc. San Diego, Calif., USA) was added to each well. The plates were incubated at room temperature for one hour, washed, and the enzyme substrate NBT/BCIP (DakoCytomation Norden A/S, Glostrup, Denmark) was added to each well and incubated at RT for 5-10 min. Upon the emergence of dark purple spots, the reaction was terminated by washing with tap-water. The spots were counted using the ImmunoSpot® Series 2.0 Analyzer (CTL Analyzers, LLC, Cleveland, US) and the peptide specific CTL frequency could be calculated from the numbers of spot-forming cells. All assays were performed in duplicates for each peptide antigen.

HLA-A3 = HLA-A3 (Homo sapiens, UniProt P04439); assay: Assembly assay, HLA-A3; assay type: binding; settings: for EC50: Table 4, HLA-A3, read-out: C50
Experimental: (§1) The binding affinity of synthetic peptides (Invitrogen, Carlsbad, Calif., USA) to HLA-A1, -A2, A3, or -A11 molecules metabolically labeled with [^35S]-methionine was measured in the assembly assay, as described previously (12). The assay is based on peptide-mediated stabilization of empty HLA molecules released upon cell lysis, from the TAP-deficient cell lines. Stably folded HLA-molecules were immune-precipitated using the HLA class I-specific, conformation-dependent mAb W6/32, and separated by isoelectric focusing (IEF) gel electrophoresis. MHC heavy chain bands were quantified using the ImageGauge Phosphorimager program (FUJI photo film Co., Carrollton, Tex., USA). The intensity of the band is proportional to the amount of peptide-bound class I MHC complex recovered during the assay. Subsequently, the extent of stabilization of the HLA-molecule is directly related to the binding affinity of the added peptide. The peptide concentration used to analyze the recovery of the HLA-molecules was 40, 4, 0.4, 0.04 μM for HLA-A1 and HLA-A11, and 100, 10, 1, 0.1, 0.01 μM for HLA-A2 and HLA-A3. The C50 value was subsequently calculated for each peptide as the peptide concentration sufficient for half maximal stabilization.

HLA-A1 = target: T2, HLA-A1 (Homo sapiens, UniProt P04439, A114D/A174V/A182V/D101N/D185E/E176A/E190D/L180R/Q94H/R68K/S129P/T187R/V100A/V91M/W191G); assay: Assembly assay, HLA-A1; assay type: binding; settings: Table 4, HLA-A1; read-out: C50
T2 construct: empty HLA molecules released upon cell lysis, from the TAP-deficient cell lines; endogenous in cells; host or cells: BM36.1 (TAP-defective cell line expressing HLA-A*0101 and HLA-B*3501)
Experimental: as §1

[2] = Example 1, Table 1, read-out: C50 (peptide concentration for half maximal binding to HLA-A2)
[3] = HLA-A3, nine samples from melanoma patients (five PBL and four TIL)
[4] = Table 4, HLA-A2, 11-mers and controls, read-out: C50

- EC50 (HLA-A2; [2]): 30 µM
Molecule: CC(C)C[C@H](NC(=O)[C@H](Cc1ccccc1)NC(=O)[C@@H]1CCCN1C(=O)[C@H](CCC(N)=O)NC(=O)[C@H](Cc1c[nH]c2ccccc12)NC(=O)[C@H](C)NC(=O)[C@@H]1CCCN1C(=O)[C@@H]1CCCN1C(=O)[C@H](CC(C)C)NC(=O)[C@@H](N)[C@@H](C)O)C(=O)O [Sur8]

- EC50 (HLA-A2; [2]): 10 µM
Molecule: CC(C)C[C@H](NC(=O)[C@H](CCCCN)NC(=O)[C@H](CC(C)C)NC(=O)[C@H](Cc1ccccc1)NC(=O)[C@H](CCC(=O)O)NC(=O)CNC(=O)[C@H](CC(C)C)NC(=O)[C@@H](NC(=O)[C@H](CC(C)C)NC(=O)[C@@H](N)CCC(=O)O)[C@@H](C)O)C(=O)O [Sur9]

- binding to HLA-A3, in words (HLA-A3): high affinity
- EC50 (HLA-A3): 0.02 µM
Molecule: CC[C@H](C)[C@H](NC(=O)[C@@H](N)CCCNC(=N)N)C(=O)N[C@@H](CO)C(=O)N[C@H](C(=O)N[C@@H](Cc1ccccc1)C(=O)N[C@@H](CCCCN)C(=O)N[C@@H](CC(N)=O)C(=O)N[C@@H](Cc1c[nH]c2ccccc12)C(=O)N1CCC[C@H]1C(=O)N[C@@H](CCCCN)C(=O)O)[C@@H](C)O [Sur18K10]
- ELISPOT response [1, 3]: CTL reactivity was detected
- responding patients ([1]; HLA-A3, twenty-seven melanoma patients analyzed): six

- EC50 (HLA-A1): 0.8 µM
Molecule: CC[C@H](C)[C@H](NC(=O)[C@H](Cc1ccccc1)NC(=O)CNC(=O)[C@H](C)NC(=O)[C@H](CCC(=O)O)NC(=O)[C@H](C)NC(=O)[C@@H](N)CCSC)C(=O)N[C@@H](Cc1c[nH]cn1)C(=O)N[C@@H](Cc1ccc(O)cc1)C(=O)O [Sur38Y9]

- EC50 (HLA-A1): 0.4 µM
Molecule: CC(C)C[C@H](NC(=O)[C@H](CC(=O)O)NC(=O)[C@@H]1CCCN1C(=O)[C@H](CCC(=O)O)NC(=O)[C@H](CC(N)=O)NC(=O)[C@H](CCC(=O)O)NC(=O)[C@@H](NC(=O)[C@@H]1CCCN1)[C@@H](C)O)C(=O)N[C@@H](C)C(=O)N[C@@H](Cc1ccc(O)cc1)C(=O)O [Sur47Y10]

- C50 (half maximal recovery of HLA-A2) (HLA-A2; Example 4): did not bind
Molecule: CC(C)C[C@H](NC(=O)[C@H](CCC(=O)O)NC(=O)[C@H](CCCCN)NC(=O)[C@H](Cc1ccccc1)NC(=O)[C@H](CS)NC(=O)[C@H](Cc1ccccc1)NC(=O)[C@H](Cc1ccccc1)NC(=O)[C@H](CS)NC(=O)[C@H](CCC(N)=O)NC(=O)[C@H](C)NC(=O)[C@@H](N)CC(C)C)C(=O)O [Sur54-64] (H-LAQCFFCFKEL-OH; N-terminus and C-terminus assumed)

- binding to HLA-A3, in words (HLA-A3): high affinity
Molecule: CC(C)C[C@H](NC(=O)[C@@H](N)CC(C)C)C(=O)N[C@@H](CCC(N)=O)C(=O)N[C@@H](CS)C(=O)N[C@@H](Cc1ccccc1)C(=O)N[C@@H](Cc1ccccc1)C(=O)N[C@@H](CS)C(=O)N[C@@H](Cc1ccccc1)C(=O)N[C@@H](CCCCN)C(=O)O [Sur54L2]
- ELISPOT response [1, 3]: No responses were detected

- binding to HLA-A3, in words (HLA-A3): bound weakly
- EC50 (HLA-A3): > 100 µM
Molecule: CC(C)C[C@H](NC(=O)[C@H](Cc1ccccc1)NC(=O)[C@H](CCC(=O)O)NC(=O)CNC(=O)[C@H](CC(C)C)NC(=O)[C@@H](NC(=O)[C@H](CC(C)C)NC(=O)[C@@H](N)CCC(=O)O)[C@@H](C)O)C(=O)N[C@@H](CCCCN)C(=O)O [Sur 95-103]
- ELISPOT response [1, 3]: no immune responses

- C50 (peptide concentration for half maximal binding to HLA-A2) (HLA-A2; Example 1, Table 1): did not bind; also recorded: Not binding
Molecule: ETAKKVRRAI [Sur10]

- C50 (half maximal recovery of HLA-A2) (HLA-A2; Example 4): did not bind
- EC50 (HLA-A2; [4]): > 100 µM
Molecule: KLDRERAKNKI [Sur103-113]

- C50 (half maximal recovery of HLA-A2) (HLA-A2; Example 4): did not bind
- EC50 (HLA-A2; [4]): > 100 µM
Molecule: SVKKQFEELTL [Sur88-98]

- C50 (peptide concentration for half maximal binding to HLA-A2) (HLA-A2; Example 1, Table 1): did not bind; also recorded: Not binding
Molecule: TAKKVRRAI [Sur7]

More lines, now with the values behind:

Molecule: CC(C)C[C@H](NC(=O)[C@H](CCCCN)NC(=O)[C@H](CC(C)C)NC(=O)[C@H](Cc1ccccc1)NC(=O)[C@H](CCC(=O)O)NC(=O)CNC(=O)[C@H](CC(C)C)NC(=O)[C@@H](NC(=O)[C@@H](N)CC(C)C)[C@@H](C)O)C(=O)O [Sur1]
- EC50 (HLA-A2; [2]): > 100 µM
- EC50 (HLA-A2; Example 4, read-out: C50 (half maximal recovery of HLA-A2)): > 100 µM

Molecule: CC[C@H](C)[C@H](NC(=O)[C@H](C)NC(=O)[C@H](CCCNC(=N)N)NC(=O)[C@H](CCCNC(=N)N)NC(=O)[C@@H](NC(=O)[C@@H](N)CCCCN)C(C)C)C(=O)N[C@@H](CCC(=O)O)C(=O)N[C@@H](CCC(N)=O)C(=O)N[C@@H](CC(C)C)C(=O)O [Sur3]
- EC50 (HLA-A2; [2]): > 100 µM

Molecule: CC(C)C[C@H](NC(=O)[C@@H](N)[C@@H](C)O)C(=O)N1CCC[C@H]1C(=O)N1CCC[C@H]1C(=O)N[C@@H](C)C(=O)N[C@@H](Cc1c[nH]c2ccccc12)C(=O)N[C@@H](CCC(N)=O)C(=O)N1CCC[C@H]1C(=O)N[C@@H](CCCCN)C(=O)O [Sur5K9]
- ELISPOT response [1, 3]: No responses were detected
- binding to HLA-A3, in words (HLA-A3): high affinity
- EC50 (HLA-A3): 2 µM

Molecule: CC(C)C[C@H](NC(=O)[C@H](CCCCN)NC(=O)[C@H](CC(C)C)NC(=O)[C@@H](N)Cc1ccccc1)C(=O)N[C@@H](CC(=O)O)C(=O)N[C@@H](CCCNC(=N)N)C(=O)N[C@@H](CCC(=O)O)C(=O)N[C@@H](CCCNC(=N)N)C(=O)N[C@@H](C)C(=O)O [Sur6]
- EC50 (HLA-A2; [2]): 30 µM

Molecule: CC(C)C[C@H](NC(=O)[C@H](CCC(=O)O)NC(=O)[C@H](CCC(=O)O)NC(=O)[C@H](Cc1ccccc1)NC(=O)[C@H](CCC(N)=O)NC(=O)[C@H](CCCCN)NC(=O)[C@H](CCCCN)NC(=O)[C@@H](NC(=O)[C@H](CO)NC(=O)[C@H](CC(C)C)NC(=O)[C@@H](N)Cc1ccccc1)C(C)C)C(=O)O [Sur86-96]
- patients with CTL response in PBL ([1]; HLA-A2, ten cancer patients analyzed): no responses could be detected

Molecule: PTENEPDLAQ [Sur47-56]
- ELISPOT response ([1]; HLA-A1, ten melanoma patients, data not shown): no peptide-specific responses were detected

Molecule: PTLPPAWQPFL [Sur4-14]
- C50 (half maximal recovery of HLA-A2) (HLA-A2; Example 4): did not bind
- EC50 (HLA-A2; [4]): > 100 µM

Molecule: RAIEQLAAM [Sur2]
- C50 (peptide concentration for half maximal binding to HLA-A2) (HLA-A2; Example 1, Table 1): did not bind; also recorded: Not binding

Molecule: STFKNWPFL [Sur4]
- C50 (peptide concentration for half maximal binding to HLA-A2) (HLA-A2; Example 1, Table 1): did not bind; also recorded: Not binding

Molecule: SVKKQFEEL [Sur5]
- C50 (peptide concentration for half maximal binding to HLA-A2) (HLA-A2; Example 1, Table 1): did not bind; also recorded: Not binding
